Columns and labels:
[1] = target: Sodium-dependent dopamine transporter (Rattus norvegicus, UniProt P23977); assay: biochemical; format: tissue-based, Brain
Description: Binding affinity for dopamine transporter was determined in vitro in rat brain using [3H]WIN-35428 s radioligand

[2] = target: T1, Muscarinic acetylcholine receptor M1 (Rattus norvegicus, UniProt P08482); assay: Binding affinity for muscarinic m1 receptor was determined in vitro in rat brain using [3H]pirenzepine as radioligand.; format: tissue-based
T1 sequence (P08482 whole entry): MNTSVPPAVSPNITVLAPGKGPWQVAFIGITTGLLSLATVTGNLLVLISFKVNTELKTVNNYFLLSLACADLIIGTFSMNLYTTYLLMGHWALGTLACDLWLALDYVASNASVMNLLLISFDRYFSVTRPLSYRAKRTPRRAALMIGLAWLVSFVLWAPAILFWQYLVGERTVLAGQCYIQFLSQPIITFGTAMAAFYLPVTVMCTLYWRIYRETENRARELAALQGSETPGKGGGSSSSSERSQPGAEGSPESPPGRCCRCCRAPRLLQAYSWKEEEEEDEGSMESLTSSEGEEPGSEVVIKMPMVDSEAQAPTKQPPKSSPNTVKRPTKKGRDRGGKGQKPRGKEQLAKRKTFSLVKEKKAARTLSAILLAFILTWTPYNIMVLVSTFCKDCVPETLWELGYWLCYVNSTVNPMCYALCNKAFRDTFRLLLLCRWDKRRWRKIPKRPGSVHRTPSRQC

[3] = target: Sodium-dependent serotonin transporter (Rattus norvegicus, UniProt P31652); assay: Binding affinity for serotonin transporter was determined in vitro in rat brain using [3H]citalopram as radioligand.; format: tissue-based
[4] = target: Norepinephrine transporter (Rattus norvegicus, UniProt Q9WTR4); assay: Binding affinity for norepinephrine transporter in rat brain using [3H]-nisoxatine as radioligand; format: tissue-based
Norepinephrine transporter, sequence (Q9WTR4 whole entry): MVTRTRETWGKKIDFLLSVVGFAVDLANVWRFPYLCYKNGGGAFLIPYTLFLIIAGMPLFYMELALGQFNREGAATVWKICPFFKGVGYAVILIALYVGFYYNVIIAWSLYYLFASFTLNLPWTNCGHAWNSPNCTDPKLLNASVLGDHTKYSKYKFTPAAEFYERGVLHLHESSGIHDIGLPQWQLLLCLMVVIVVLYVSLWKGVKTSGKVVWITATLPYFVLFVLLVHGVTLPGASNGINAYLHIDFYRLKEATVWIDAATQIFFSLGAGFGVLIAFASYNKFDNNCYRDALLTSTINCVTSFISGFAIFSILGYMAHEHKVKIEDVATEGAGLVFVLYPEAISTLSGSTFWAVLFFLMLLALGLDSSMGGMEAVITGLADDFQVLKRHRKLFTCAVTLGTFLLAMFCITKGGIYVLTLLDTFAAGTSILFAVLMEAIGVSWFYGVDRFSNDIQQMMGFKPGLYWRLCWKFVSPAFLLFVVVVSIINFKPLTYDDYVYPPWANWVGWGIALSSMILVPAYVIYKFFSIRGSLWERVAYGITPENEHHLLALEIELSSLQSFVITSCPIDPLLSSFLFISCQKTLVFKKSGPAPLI

Sodium-dependent dopamine transporter, sequence (P23977 whole entry): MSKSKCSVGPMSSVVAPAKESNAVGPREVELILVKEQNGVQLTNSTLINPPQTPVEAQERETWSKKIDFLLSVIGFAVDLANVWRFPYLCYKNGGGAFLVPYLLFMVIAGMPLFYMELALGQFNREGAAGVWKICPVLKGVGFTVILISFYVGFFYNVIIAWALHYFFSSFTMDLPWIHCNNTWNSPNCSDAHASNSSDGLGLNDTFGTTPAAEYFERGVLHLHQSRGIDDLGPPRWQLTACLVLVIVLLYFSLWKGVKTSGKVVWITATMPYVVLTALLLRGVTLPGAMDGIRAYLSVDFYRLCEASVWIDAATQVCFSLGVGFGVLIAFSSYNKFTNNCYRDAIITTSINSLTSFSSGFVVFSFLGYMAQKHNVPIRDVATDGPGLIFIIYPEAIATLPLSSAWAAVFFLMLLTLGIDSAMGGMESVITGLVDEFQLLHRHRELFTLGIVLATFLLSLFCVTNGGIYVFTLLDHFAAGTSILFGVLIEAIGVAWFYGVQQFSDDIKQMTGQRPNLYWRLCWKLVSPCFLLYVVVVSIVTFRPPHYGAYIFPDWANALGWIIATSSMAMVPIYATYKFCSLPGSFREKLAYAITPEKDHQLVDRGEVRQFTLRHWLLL
Sodium-dependent serotonin transporter, sequence (P31652 whole entry): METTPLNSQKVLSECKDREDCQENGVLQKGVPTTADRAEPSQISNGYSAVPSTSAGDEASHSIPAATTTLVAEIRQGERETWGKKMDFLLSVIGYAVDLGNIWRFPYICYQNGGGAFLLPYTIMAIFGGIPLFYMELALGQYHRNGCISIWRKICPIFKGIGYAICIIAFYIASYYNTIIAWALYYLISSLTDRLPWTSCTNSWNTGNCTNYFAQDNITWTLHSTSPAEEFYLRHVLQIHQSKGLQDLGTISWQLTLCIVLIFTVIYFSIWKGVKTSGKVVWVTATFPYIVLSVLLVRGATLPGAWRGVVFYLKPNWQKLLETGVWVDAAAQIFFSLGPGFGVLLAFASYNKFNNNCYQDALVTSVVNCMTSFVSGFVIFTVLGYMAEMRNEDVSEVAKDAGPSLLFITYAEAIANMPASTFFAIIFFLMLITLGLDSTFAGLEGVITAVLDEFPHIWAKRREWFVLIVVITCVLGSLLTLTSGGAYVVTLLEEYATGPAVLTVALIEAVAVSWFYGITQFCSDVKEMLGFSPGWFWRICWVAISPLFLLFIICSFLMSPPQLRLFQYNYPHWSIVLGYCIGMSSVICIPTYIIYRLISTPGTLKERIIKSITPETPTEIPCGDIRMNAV

SMILES: CCCCc1cccc(N2[C@@H]3CC[C@H]2C[C@H](OC(c2ccc(Cl)cc2)c2ccc(Cl)cc2)C3)c1
- Ki [1]: 85 nM
- Ki [2]: 3730 nM
- Ki [3]: 659 nM
- Ki [4]: 4.95 µM

SMILES: CCCCc1cccc(N2[C@@H]3CC[C@H]2C[C@H](OC(c2ccccc2)c2ccc(Cl)cc2)C3)c1 (some centres undefined)
- Ki [1]: 53.3 nM
- Ki [2]: 1430 nM
- Ki [3]: 737 nM
- Ki [4]: 2.32 µM

SMILES: CCCc1cccc(N2[C@H]3CC[C@]2(C)C[C@@H](OC(c2ccccc2)c2ccc(Cl)cc2)C3)c1 (some centres undefined)
- Ki [1]: 148 nM
- Ki [2]: 397 nM
- Ki [3]: 302 nM
- Ki [4]: 10.3 µM

SMILES: CCCc1cccc(N2[C@@H]3CC[C@H]2C[C@H](OC(c2ccccc2)c2cccc(Cl)c2)C3)c1 (some centres undefined)
- Ki [1]: 101 nM
- Ki [2]: 337 nM
- Ki [3]: 429 nM
- Ki [4]: 1.81 µM

SMILES: CCCc1cccc(N2[C@@H]3CC[C@H]2C[C@H](OC(c2ccc(Cl)cc2)c2ccc(Cl)cc2)C3)c1
- Ki [1]: 158 nM
- Ki [2]: 3050 nM
- Ki [3]: 585 nM
- Ki [4]: 19.8 µM

SMILES: CN1[C@@H]2CC[C@H]1C[C@@H](OC(c1ccccc1)c1cccc(Cl)c1)C2 (some centres undefined)
- Ki [3]: 258 nM
- Ki [4]: 0.451 µM

SMILES: CN1C2CCC1CC(OC(c1ccccc1)c1ccc(Cl)cc1)C2 (centres undefined)
- Ki [2]: 7.9 nM
- Ki [3]: 5120 nM
- Ki [4]: 1.47 µM

SMILES: Clc1ccc(C(OC2CC3CCC(C2)N3)c2ccccc2)cc1 (centres undefined)
- Ki [1]: 36.8 nM
- Ki [2]: 95.5 nM
- Ki [3]: 1320 nM
- Ki [4]: 1.01 µM

SMILES: Clc1ccc(C(OC2CC3CCC(C2)N3)c2ccc(Cl)cc2)cc1 (centres undefined)
- Ki [2]: 649 nM
- Ki [3]: 727 nM
- Ki [4]: 6.04 µM

SMILES: Clc1ccc(C(OC2CC3CCC(C2)N3Cc2ccccc2)c2ccc(Cl)cc2)cc1 (centres undefined)
- Ki [1]: 399 nM
- Ki [2]: 8630 nM
- Ki [3]: 3610 nM
- Ki [4]: 7.66 µM

SMILES: CCCCc1cccc(N2C3CCC2CC(OC(c2ccccc2)c2cccc(Cl)c2)C3)c1 (centres undefined)
- Ki [1]: 153 nM
- Ki [2]: 564 nM
- Ki [3]: 591 nM
- Ki [4]: 1.47 µM

SMILES: Clc1cccc(C(OC2CC3CCC(C2)N3Cc2ccccc2)c2ccccc2)c1 (centres undefined)
- Ki [1]: 191 nM
- Ki [2]: 674 nM
- Ki [3]: 1680 nM
- Ki [4]: 6.46 µM

SMILES: C=CCN1C2CCC1CC(OC(c1ccccc1)c1cccc(Cl)c1)C2 (centres undefined)
- Ki [1]: 33.6 nM
- Ki [2]: 69.7 nM
- Ki [3]: 1200 nM
- Ki [4]: 1.23 µM

SMILES: Clc1ccc(C(OC2CC3CCC(C2)N3Cc2ccccc2)c2ccccc2)cc1 (centres undefined)
- Ki [1]: 365 nM
- Ki [2]: 2560 nM
- Ki [3]: 3530 nM
- Ki [4]: 13 µM

SMILES: C=CCN1C2CCC1CC(OC(c1ccccc1)c1ccc(Cl)cc1)C2 (centres undefined)
- Ki [1]: 84.2 nM
- Ki [2]: 127 nM
- Ki [3]: 2330 nM
- Ki [4]: 4.72 µM

SMILES: C=CCN1C2CCC1CC(OC(c1ccc(Cl)cc1)c1ccc(Cl)cc1)C2 (centres undefined)
- Ki [1]: 54.6 nM
- Ki [2]: 127 nM
- Ki [3]: 568 nM
- Ki [4]: 4.14 µM

SMILES: Clc1cccc(C(OC2CC3CCC(C2)N3)c2ccccc2)c1 (centres undefined)
- Ki [1]: 26.2 nM
- Ki [2]: 91.7 nM
- Ki [3]: 2100 nM
- Ki [4]: 0.508 µM

Source: ChEMBL document CHEMBL1134838, “Structure-activity relationships at monoamine transporters and muscarinic receptors for N-substituted-3alpha-(3'-chloro-, 4'-chloro-, and 4',4''-dichloro-substituted-diphenyl)methoxytropanes” (J Med Chem, 2001)
